Earlier results on one molecule are cited in US20040248846A1, “Intranasal administration of triptans” (Nastech Pharmaceutical Company Inc., priority 2003, published 2004).

Structures are written as SMILES. Like-named read-outs stand apart in the source and are kept apart here.

The test system of data set [1] is patients with migraine.
Setting [2] is: single 6 mg subcutaneous dose, 18 healthy males.

As for `CNS(=O)(=O)Cc1ccc2[nH]cc(CCN(C)C)c2c1` [sumatriptan], the “mean Cmax” value (5 mg intranasal dose, 20 females) is 0.005 µg/mL; the “mean Cmax” value (20 mg intranasal dose, 20 females) was 0.016 µg/mL; the “mean Cmax” value (oral dosing with 25 mg) is recorded as “approximately 18 ng/ml”; the “mean Cmax” value under setting [2] was 0.074 ± 0.015 µg/mL. Further, the tmax result (oral dosing with 25 mg) is “approximately 2 hours”. Besides, the median tmax under setting [2] is 12 min. In addition, the “efficacy (effective)” value in data set [1] (6 mg subcutaneous dose) is given as around 85%. The “Onset of pain relief” value was 30 min in data set [1] (after a nasal dose) and 10 to 34 min in data set [1] (after a subcutaneous dose).
